The test system of series [1] is facial skin of a human subject. Kind of series: Topical application of aqueous solution to facial skin of a human subject before bedtime.
Experimental: Topical Application of an Aqueous Solution of Vitamin C. A one gram tablet of Vitamin C (Ascorbic acid; GNC Brand, GNC, Inc.) was dissolved to completion in 1 tablespoon of water. The resulting solution was applied to the facial skin of a human subject immediately before bedtime.
Direct Comparisons of Aqueous Vitamin C Solution to Aqueous Vitamin C Solutions Containing Additional Ingredients. Several direct comparisons were performed to determine whether the addition of additional components could improve the results observed with Vitamin C alone. In the first of these tests, an aqueous solution comprising Vitamin C alone (3 g) was applied to one side of the subject's face immediately before bedtime, while an aqueous solution comprising 3 g of Vitamin C and 600 mg of N-acetyl-cysteine (GNC, Inc.) was applied to the other half of the subject's face at the same time.
A second comparison was then performed. In this study, an aqueous solution comprising Vitamin C (3 g) and Vitamin B5 (500 mg, obtained from GNC, Inc.) was applied to one side of the subject's face immediately before bedtime, while an aqueous solution comprising 3 g of Vitamin C, 600 mg of N-acetyl-cysteine and 10 mg zinc (GNC, Inc.) was applied to the other half of the subject's face at the same time.
Tablets containing 3 g of Vitamin C, 100 mg of Vitamin B1, 500 mg of Vitamin B5 and 500 mg of N-acetyl-cysteine, all obtained from obtained from GNC, Inc., were ground into a powder and mixed together. The mixture was then added to one tablespoon of water and allowed to dissolve to completion, which took approximately 10 hrs. The resulting solution was applied to the facial skin of a human subject immediately before bedtime.
Optimization of ranges for each of the components was determined. For example, the amount of Vitamin C present in the composition described above in Example 2 was varied from 0 g to 5 g.
In an attempt to reduce the slight irritation caused by application of the anti-aging skin care composition and to enhance its effects on fine lines and wrinkles, 100 mg of lipoic acid was added to the anti-aging skin care composition comprising 3 g of Vitamin C, 100 mg of Vitamin B1, 500 mg of Vitamin B5 and 500 mg of N-acetyl-cysteine. […] The resulting solution was again applied to the facial skin of a human subject immediately before bedtime.
The nature of series [2]: Miscibility of Vitamin E with the aqueous Vitamin C solution. It is filed as physicochemical. The note with it: oils and powders containing Vitamin E. How it is done:
Addition of Vitamin E Prevented by Poor Solubility. […] Thus, no further studies of the effects of the addition of Vitamin E to the various anti-aging skin care compositions described herein were performed.

Consider `O=C1O[C@H]([C@@H](O)CO)C(O)=C1O` [Vitamin C, Ascorbic acid], for which, in series [1] (after approximately 6-8 hrs of sleep), the “redness or burning of the facial skin upon waking” value is listed as “slight redness of the facial skin”. Also, in series [1] (after approximately 6-8 hrs of sleep, overnight application), the “appearance of the facial skin upon waking” value is given as “noticeably improved”. The “sensation upon initial contact with the facial skin” value in series [1] (immediately after application, before the solution dried) is reported as “slight burning sensation”. The “redness and irritation following subsequent applications” value in series [1] (subsequent applications, dose of Vitamin C increased to 2 g and up to 5 g) is on record as “subsided greatly”.

On to Vitamin E, for which the “miscibility with the aqueous solution containing Vitamin C” value in series [2] is recorded as “neither oils nor powders containing Vitamin E were miscible”.
